Assay results: publication PMC5578959, “Selective LRRK2 kinase inhibition reduces phosphorylation of endogenous Rab10 and Rab12 in human peripheral mononuclear blood cells” (Scientific Reports, 2017)

Tests used:
Test in all cases: KiNativ profiling in human PBMCs
Assay type in all cases: binding
MST4,YSK1 = details: Lys2
Method: (§1) Compounds were shipped to ActivX Technologies (San Diego, US) where LRRK2 target engagement and broad kinase profiling was performed using KiNativ™ procedures. Live cell treatment of human peripheral blood mononuclear cells (PBMCs) at two compound concentrations (1 µM and 0.1 µM) were used to evaluate and compare in vitro target engagement and kinase selectivity, respectively (see Supplementary File 1).

MLK3 = system: T1, MLK3
T1 construct: purchased ActivX Technologies (KiNativ)
Method: as §1

GPRK6 = system: T2, GPRK6; details: Lys2
T2 construct: purchased ActivX Technologies (KiNativ)
Method: as §1

CHK2 = system: T3, CHK2
T3 construct: purchased ActivX Technologies (KiNativ)
Method: as §1

TAO1,TAO3 = details: Lys2
Method: as §1

QSK = system: T4, QSK; details: Lys1
T4 construct: purchased ActivX Technologies (KiNativ)
Method: as §1

Erk5 = system: T5, Erk5; details: Lys2
T5 construct: purchased ActivX Technologies (KiNativ)
Method: as §1

GSK3A = system: T6, GSK3A; details: Lys2
T6 construct: purchased ActivX Technologies (KiNativ)
Method: as §1

MAP2K4 = system: T7, MAP2K4
T7 construct: purchased ActivX Technologies (KiNativ)
Method: as §1

BARK1 = system: T8, BARK1; details: Lys2
T8 construct: purchased ActivX Technologies (KiNativ)
Method: as §1

SYK = system: T9, SYK
T9 construct: purchased ActivX Technologies (KiNativ)
Method: as §1

MAP3K1 = system: T10, MAP3K1; details: Lys2
T10 construct: purchased ActivX Technologies (KiNativ)
Method: as §1

eEF2K = system: T11, eEF2K; details: ATP
T11 construct: purchased ActivX Technologies (KiNativ)
Method: as §1

PAN3 = system: T12, PAN3; details: ATP
T12 construct: purchased ActivX Technologies (KiNativ)
Method: as §1

NEK4 = system: T13, NEK4; details: Lys2
T13 construct: purchased ActivX Technologies (KiNativ)
Method: as §1

NDR2 = system: T14, NDR2
T14 construct: purchased ActivX Technologies (KiNativ)
Method: as §1

FGR = system: T15, FGR; details: Activation Loop
T15 construct: purchased ActivX Technologies (KiNativ)
Method: as §1

JAK1 domain1 = system: T16, JAK1 domain1; details: Protein Kinase Domain
T16 construct: JAK1 domain1; purchased ActivX Technologies (KiNativ)
Method: as §1

IKKe = system: T17, IKKe; details: Lys1
T17 construct: purchased ActivX Technologies (KiNativ)
Method: as §1

TBK1 = system: T18, TBK1; details: Lys1
T18 construct: purchased ActivX Technologies (KiNativ)
Method: as §1

JAK3 domain2 = system: T19, JAK3 domain2
T19 construct: JAK3 domain2; purchased ActivX Technologies (KiNativ)
Method: as §1

PKR = system: T20, PKR
T20 construct: purchased ActivX Technologies (KiNativ)
Method: as §1

OSR1 = system: T21, OSR1; details: Lys2
T21 construct: purchased ActivX Technologies (KiNativ)
Method: as §1

Wnk1,Wnk2,Wnk3 = details: Lys2
Method: as §1

PIK3C3 = system: T22, PIK3C3; details: ATP
T22 construct: purchased ActivX Technologies (KiNativ)
Method: as §1

PFTAIRE1 = system: T23, PFTAIRE1
T23 construct: purchased ActivX Technologies (KiNativ)
Method: as §1

JAK1 domain2 = system: T24, JAK1 domain2
T24 construct: JAK1 domain2; purchased ActivX Technologies (KiNativ)
Method: as §1

MAP3K6 = system: T25, MAP3K6; details: Lys2
T25 construct: purchased ActivX Technologies (KiNativ)
Method: as §1

NEK6,NEK7 = details: Lys2
Method: as §1

CDC2 = system: T26, CDC2; details: Lys2
T26 construct: purchased ActivX Technologies (KiNativ)
Method: as §1

NEK8 = system: T27, NEK8; details: Lys2
T27 construct: purchased ActivX Technologies (KiNativ)
Method: as §1

NEK7 = system: T28, NEK7; details: Lys1
T28 construct: purchased ActivX Technologies (KiNativ)
Method: as §1

CDK11,CDK8 = details: Lys2
Method: as §1

KHS1 = system: T29, KHS1; details: Lys1
T29 construct: purchased ActivX Technologies (KiNativ)
Method: as §1

CSK = system: T30, CSK
T30 construct: purchased ActivX Technologies (KiNativ)
Method: as §1

STLK6 = system: T31, STLK6
T31 construct: purchased ActivX Technologies (KiNativ)
Method: as §1

SMILES: Cn1cc(-c2c[nH]c3ncnc(N4CCOCC4)c23)cc1C#N [PFE-360]
- % Inhibition (MST4,YSK1; 0.1µM): -0.2%
- % Inhibition (MST4,YSK1; 1µM): -16.6%
- % Inhibition (MLK3; 0.1µM, Lys1): 5%
- % Inhibition (MLK3; 0.1µM, Lys2): -4.6%
- % Inhibition (MLK3; 1µM, Lys1): -5.6%
- % Inhibition (MLK3; 1µM, Lys2): 10.2%
- % Inhibition (GPRK6; 0.1µM): 5.7%
- % Inhibition (GPRK6; 1µM): 0.4%
- % Inhibition (CHK2; 0.1µM, Lys1): 3.6%
- % Inhibition (CHK2; 0.1µM, Lys2): -6.7%
- % Inhibition (CHK2; 1µM, Lys1): -2.7%
- % Inhibition (CHK2; 1µM, Lys2): -12.6%
- % Inhibition (TAO1,TAO3; 0.1µM): -0.2%
- % Inhibition (TAO1,TAO3; 1µM): -14.3%
- % Inhibition (QSK; 0.1µM): -13%
- % Inhibition (QSK; 1µM): -12.1%
- % Inhibition (Erk5; 0.1µM): 5%
- % Inhibition (Erk5; 1µM): 7.2%
- % Inhibition (GSK3A; 0.1µM): 10.6%
- % Inhibition (GSK3A; 1µM): 19.8%
- % Inhibition (MAP2K4; 0.1µM, Lys1): -7.3%
- % Inhibition (MAP2K4; 0.1µM, Lys2): 7.4%
- % Inhibition (MAP2K4; 1µM, Lys1): 11%
- % Inhibition (MAP2K4; 1µM, Lys2): -3.8%
- % Inhibition (BARK1; 0.1µM): -4.8%
- % Inhibition (BARK1; 1µM): -29.7%
- % Inhibition (SYK; 0.1µM, Activation Loop): 1.9%
- % Inhibition (SYK; 0.1µM, Lys1): 0.1%
- % Inhibition (SYK; 1µM, Activation Loop): -4.4%
- % Inhibition (SYK; 1µM, Lys1): -13%
- % Inhibition (MAP3K1; 0.1µM): 7%
- % Inhibition (MAP3K1; 1µM): -26.4%
- % Inhibition (eEF2K; 0.1µM): 15.7%
- % Inhibition (eEF2K; 1µM): -1.8%
- % Inhibition (PAN3; 0.1µM): -22.1%
- % Inhibition (PAN3; 1µM): 10.4%
- % Inhibition (NEK4; 0.1µM): 9.8%
- % Inhibition (NEK4; 1µM): -8.3%
- % Inhibition (NDR2; 0.1µM, Lys1): -18.6%
- % Inhibition (NDR2; 0.1µM, Lys2): 2.7%
- % Inhibition (NDR2; 1µM, Lys1): -5.5%
- % Inhibition (NDR2; 1µM, Lys2): -8.1%
- % Inhibition (FGR; 0.1µM): -2.5%
- % Inhibition (FGR; 1µM): -6.6%
- % Inhibition (JAK1 domain1; 0.1µM): 16.2%
- % Inhibition (JAK1 domain1; 1µM): 8.2%
- % Inhibition (IKKe; 0.1µM): 2.3%
- % Inhibition (IKKe; 1µM): 7.7%
- % Inhibition (TBK1; 0.1µM): -29%
- % Inhibition (TBK1; 1µM): 2.1%
- % Inhibition (JAK3 domain2; 0.1µM, Activation Loop): 6.4%
- % Inhibition (JAK3 domain2; 0.1µM, Lys1): 2.6%
- % Inhibition (JAK3 domain2; 1µM, Activation Loop): 7.7%
- % Inhibition (JAK3 domain2; 1µM, Lys1): -7.6%
- % Inhibition (PKR; 0.1µM, Activation Loop): -1.7%
- % Inhibition (PKR; 0.1µM, Lys2): -0.1%
- % Inhibition (PKR; 1µM, Activation Loop): -6.6%
- % Inhibition (PKR; 1µM, Lys2): -9.3%
- % Inhibition (OSR1; 0.1µM): -20.9%
- % Inhibition (OSR1; 1µM): -5.1%
- % Inhibition (Wnk1,Wnk2,Wnk3; 0.1µM): 11.3%
- % Inhibition (Wnk1,Wnk2,Wnk3; 1µM): 1.3%
- % Inhibition (PIK3C3; 0.1µM, peptide TEDGGKYPVIFKHGDDLR): -2.7%
- % Inhibition (PIK3C3; 0.1µM, peptide TEDGGKYPVIFKHGDDLRQDQLILQIISLMDK): -22.4%
- % Inhibition (PIK3C3; 1µM, peptide TEDGGKYPVIFKHGDDLR): -7.9%
- % Inhibition (PIK3C3; 1µM, peptide TEDGGKYPVIFKHGDDLRQDQLILQIISLMDK): -43.1%
- % Inhibition (PFTAIRE1; 0.1µM, Lys1): 1.9%
- % Inhibition (PFTAIRE1; 0.1µM, Lys2): -4%
- % Inhibition (PFTAIRE1; 1µM, Lys1): -2%
- % Inhibition (PFTAIRE1; 1µM, Lys2): -1.5%
- % Inhibition (JAK1 domain2; 0.1µM, Activation Loop): -1.9%
- % Inhibition (JAK1 domain2; 0.1µM, Lys1): 0%
- % Inhibition (JAK1 domain2; 1µM, Activation Loop): -10.1%
- % Inhibition (JAK1 domain2; 1µM, Lys1): -13.8%
- % Inhibition (MAP3K6; 0.1µM): -5.9%
- % Inhibition (MAP3K6; 1µM): -0.1%
- % Inhibition (NEK6,NEK7; 0.1µM): -2.4%
- % Inhibition (NEK6,NEK7; 1µM): -18.6%
- % Inhibition (CDC2; 0.1µM, peptide DLKPQNLLIDDK): -1.5%
- % Inhibition (CDC2; 0.1µM, peptide DLKPQNLLIDDKGTIK): -4.2%
- % Inhibition (CDC2; 1µM, peptide DLKPQNLLIDDK): 4.1%
- % Inhibition (NEK8; 0.1µM): -1.8%
- % Inhibition (NEK8; 1µM): -12.1%
- % Inhibition (NEK7; 0.1µM): 2.8%
- % Inhibition (NEK7; 1µM): 11.7%
- % Inhibition (CDK11,CDK8; 0.1µM): -9.1%
- % Inhibition (CDK11,CDK8; 1µM): 9.6%
- % Inhibition (KHS1; 0.1µM): 1.1%
- % Inhibition (KHS1; 1µM): -9.3%
- % Inhibition (CSK; 0.1µM, Activation Loop): -3.4%
- % Inhibition (CSK; 0.1µM, Lys1): 0.7%
- % Inhibition (CSK; 1µM, Activation Loop): -10.5%
- % Inhibition (CSK; 1µM, Lys1): -10.4%
- % Inhibition (STLK6; 0.1µM, Lys1): -3.3%
- % Inhibition (STLK6; 0.1µM, Lys2): 11.8%
- % Inhibition (STLK6; 1µM, Lys1): -20.6%
- % Inhibition (STLK6; 1µM, Lys2): -10.2%
